This is an account of results in patent publication US20240166649A1, “DIHYDROPYRIMIDINE COMPOUND, PREPARATION METHOD THEREFOR AND APPLICATION THEREOF” (Shanghai Visonpharma Co., Ltd., priority 2021, published 2024).

The test system of data set [1] is HBV (hepatitis B virus) in HepG2.2.15 cells. The data set is described as follows: Cell-based anti-viral activity assay (HBV DNA in supernatant by quantitative PCR). The conditions noted are these: 120 h, anti-HBV activity, HepG2.2.15 cells, 5 days, read-out: EC50 (HepG2.2.15). In short, it runs like this: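 HepG2.2.15 cells (stably carrying HBV genome) treated with 3.16-fold compound dilutions, final 1% DMSO, for 5 days at 37 °C. Supernatant HBV DNA quantified by qPCR against a standard curve; % inhibition normalised to DMSO and high-concentration reference compound wells.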

Data set [2] can be described thus: Cytotoxicity assay (CellTiter Glo). The data set is classed as cell-based. To be noted: human; HepG2.2.15 cells, five days post treatment. Here is the method:
The Invention Determined Cytotoxicity of the Compounds Against HepG2.2.15 Cells (Table 2)
HepG2.2.15 cells were seeded into 96-well plates (8000 cells per well) and cell viability was measured by the addition of 60 μL of CellTiter Glo reagent (Promega) five days post treatment with the compounds. Cell plates with CellTiter Glo added were shaken on a plate shaker for 20 min and then the chemiluminescence signal was stabilized at room temperature for 10 min. Chemiluminescence values were read using a microplate reader (Bio-TeK SYNERGY NEO2).
The concentration corresponding to 50% cytotoxicity (CC50) was fitted by graphpad prism software. The cytotoxicity was calculated by the formula: % Cytotoxicity=100−(chemiluminescence value of sample Well −average chemiluminescence value of blank medium column)/(average chemiluminescence value of DMSO column −average chemiluminescence value of blank medium column)*100

Data set [3] can be described thus: Pharmacokinetics (PK) evaluation in mice. In kind it is in vivo. To be noted: ICR mice, po 10 mg/kg. Here is the method:
Pharmacokinetics (PK) Evaluation in Mice Test compounds were administered to ICR mice by gavage (po). The po dose was 10 mg/kg, and the vehicle formulation was 10% DMSO+40% PEG400+50% Saline (0.9% saline). Animals were fasted overnight (10-14 h) before administration and fed 4 h after administration. Blood was collected into heparin sodium anticoagulated tubes at multiple time points (0.5, 1, 3, 5 hours) after administration. Mice were euthanized with CO2 and livers were collected at multiple time points (0.5, 1, 3,5 h). The drug concentrations in plasma and liver were analyzed by LC-MS/MS method. Phenix WinNonlin was used to calculate the pharmacokinetic parameters.

Like-named read-outs stand apart in the source and are kept apart here. Where only a bound is given, the exact number is not on record here.

On to `CCOC(=O)C1=C(CN2CCN3C(=O)N(C45CCC(CC(=O)O)(C4)C5)C[C@@H]3C2)NC(c2nccs2)=N[C@H]1c1cccc(F)c1C` [Compound 58, 2-(4-((S)-7-(((S)-5-(Ethoxycarbonyl)-6-(3-Fluoro-2-Methylphenyl)-2-(Thiazol-2-Yl)-3,6-Dihydropyrimidin-4-Yl)Methyl)-3-Oxohexahydroimidazo[1,5-a]Pyrazin-2(3H)-Yl)Bicyclo[2.1.1]Hexan-1-Yl)Acetic Acid], for which the EC50 in data set [1] is 6 nM. Also, in data set [2], the CC50 at 5 days was over 50000 nM. In addition, the “Liver AUC(0→t)” value in data set [3] came to 175730 ng·h/g. Also, in data set [3], the “Liver Cmax” value amounted to 62519 ng/g. Moreover, the Kp at 0.5 h in data set [3] (mouse, liver/plasma, 0.5 hour, read-out: Liver/Plasma ratio) was determined as 31. Moreover, the Kp at 1 h in data set [3] (mouse, liver/plasma, 1 hour, read-out: Liver/Plasma ratio) worked out at 40. The Kp at 3 h in data set [3] (mouse, liver/plasma, 3 hour, read-out: Liver/Plasma ratio) was determined as 57. Moreover, the Kp at 5 h in data set [3] (mouse, liver/plasma, 5 hour, read-out: Liver/Plasma ratio) was 44. In addition, the concentration at 0.5 h in data set [3] (mouse, liver, 0.5 hour, read-out: Liver drug conc.) stood at 62500 ng/g; in data set [3] (mouse, plasma, 0.5 hour, read-out: Plasm drug conc.), 2030 ng/mL. The concentration at 1 h in data set [3] (mouse, liver, 1 hour, read-out: Liver drug conc.) was 61300 ng/g; in data set [3] (mouse, plasma, 1 hour, read-out: Plasm drug conc.) it was 1540 ng/mL. In addition, the concentration at 3 h was 26800 ng/g in data set [3] (mouse, liver, 3 hour, read-out: Liver drug conc.) and 470 ng/mL in data set [3] (mouse, plasma, 3 hour, read-out: Plasm drug conc.). Further, the concentration at 5 h in data set [3] (mouse, liver, 5 hour, read-out: Liver drug conc.) worked out at 14200 ng/g; in data set [3] (mouse, plasma, 5 hour, read-out: Plasm drug conc.) it was 324 ng/mL. Further, in data set [3] (mouse, plasma), the AUC(0-t) stood at 4210 ng·h/mL. The compound further registered a Cmax in data set [3] (mouse, plasma) of 2030 ng/mL.

The EC50 is the concentration giving half of the maximal effect. By CC50 is commonly meant the concentration that lowers cell viability or growth by half. The term AUC(0-t) denotes exposure summed from dosing to a finite time, without extrapolation to infinity. The low end stands for low exposure, the high end for high exposure. Usually Cmax stands for the maximum level reached in the sampled fluid or tissue.
